Results published in US12384753B2, “17-beta-hydroxysteroid dehydrogenase type 13 inhibitors and methods of use thereof” (Enanta Pharmaceuticals, Inc., priority 2021, dated 2025).

Biological target: Recombinant human HSD17B13 (Homo sapiens (Human), UniProt Q7Z5P4)
Assay: HSD17B13 rapid-fire mass spectrometry assay (RF/MS assay)
Format: biochemical
Conditions: inhibition of HSD17B13; LTB4 10 μM, NAD+ 0.5 mM, RT 3 h; IC50 ranges A-E
In short: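 Product 12-oxo-LTB4 and substrate LTB4 quantified by RapidFire triple-quad MS in negative mode, giving percent conversion. Reaction: 80 nM recombinant hHSD17B13, 10 μM LTB4, 0.5 mM NAD+, compound up to 100 μM, pH 7.5, RT, 3 h. Variable-slope fit gave IC50; run in duplicate.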

Recombinant human HSD17B13, sequence (Q7Z5P4 20-300): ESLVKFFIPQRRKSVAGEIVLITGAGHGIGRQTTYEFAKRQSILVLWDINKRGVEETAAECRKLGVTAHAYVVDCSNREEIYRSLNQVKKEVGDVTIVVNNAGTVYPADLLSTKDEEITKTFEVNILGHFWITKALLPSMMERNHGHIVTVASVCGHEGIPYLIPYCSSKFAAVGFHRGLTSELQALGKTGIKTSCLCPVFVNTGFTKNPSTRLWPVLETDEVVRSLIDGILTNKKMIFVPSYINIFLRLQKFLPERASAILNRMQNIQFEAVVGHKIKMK

SMILES | IC50 [nM]
COc1cc(C(=O)O)c(F)cc1NS(=O)(=O)c1csc(-c2ccc(C3CCC(C)(C)CC3)c(F)c2C)n1 [Example 566] | < 100
COc1cc(C(=O)O)c(F)cc1NS(=O)(=O)c1cnc(-c2ccc(C3CCC(C)(C)CC3)cc2)s1 [Example 764] | < 100
COc1cc(C(=O)O)c(F)cc1NS(=O)(=O)c1csc(-c2ccc(-c3csc4ccccc34)cc2)n1 [Example 636] | 100 to 500
CC[C@H]1CC[C@H](c2ccc(-c3nc(S(=O)(=O)Nc4cc(F)c(C(=O)O)cc4OC)cs3)c(C(F)(F)F)c2)CC1 [Example 787] | < 100
COc1c(NS(=O)(=O)c2csc(-c3ccc(C4CCC(C)(C)CC4)cc3)n2)ccc(C(=O)O)c1F [Example 505] | 100 to 500
COc1cc(C(=O)O)c(F)cc1NS(=O)(=O)c1coc(-c2ccc([C@H]3CC[C@@H](C(F)(F)F)CC3)cc2)n1 [Example 493] | < 100
COc1cc(C(=O)O)c(C2CC2)cc1NS(=O)(=O)c1csc(-c2ccc(C3CCC(C)(C)CC3)cc2C(F)(F)F)n1 [Example 699] | 1000 to 100000
COc1cc(C(=O)O)c(F)cc1NS(=O)(=O)c1csc(-c2ccc(CC3CCCCC3)cc2)n1 [Example 624] | 100 to 500
COc1cc(C(=O)O)c(F)cc1NS(=O)(=O)c1csc(-c2ccc(C3=CCC(C)(C)CC3)cc2C(F)F)n1 [Example 590] | < 100
COc1cc(C(=O)O)c(F)cc1NS(=O)(=O)c1ccc2sc(-c3ccc([C@H]4CC[C@H](C(C)C)CC4)cc3C(F)(F)F)nc2c1 [Example 798] | 100 to 500
COc1cc(C(=O)O)c(F)cc1NS(=O)(=O)c1csc(-c2ccc(-c3cc4ccccc4o3)cc2)n1 [Example 646] | < 100
CCCCOc1c(C2=CCC(C(C)C)CC2)ccc(-c2nc(S(=O)(=O)Nc3cc(F)c(C(=O)O)cc3OC)cs2)c1F (stereo not shown) [Example 585] | 100 to 500
CC(C)(C)c1ccc(S(=O)(=O)NC(=O)c2ccc(NS(=O)(=O)c3cnc(-c4ccc(F)cc4)s3)cc2)cc1 [Example 31, N-((4-(tert-butyl)phenyl)sulfonyl)-4-((2-(4-fluorophenyl)thiazole)-5-sulfonamido)benzamide] | 1000 to 100000
CN(C)c1cc(C(=O)O)ccc1NS(=O)(=O)c1csc(-c2ccc(C3CCC(C)(C)CC3)cc2C(F)(F)F)n1 [Example 697] | 1000 to 100000
O=C(O)Cc1ccc(CNS(=O)(=O)c2cnc(-c3ccc(F)cc3)s2)cc1 [Example 30] | > 100000
COc1cc(C(=O)O)c(F)cc1NS(=O)(=O)c1csc(-c2ccc([C@H]3CC[C@H](C(F)(F)F)CC3)cc2)n1 [Example 509] | < 100
COc1c(NS(=O)(=O)c2csc(-c3ccc([C@H]4CC[C@H](C(F)(F)F)CC4)cc3)n2)ccc2c(O)cccc12 [Example 649] | 1000 to 100000
COc1cc(C(=O)O)c(F)cc1NS(=O)(=O)c1ccc2sc(-c3ccc(C4CCCCC4)cc3)nc2c1 [Example 629] | 100 to 500
CCCCOc1c(F)c(-c2nc(S(=O)(=O)Nc3cc(F)c(C(=O)O)cc3OC)cs2)ccc1[C@H]1CC[C@@H](C(C)C)CC1 [Example 588] | 100 to 500
COc1cc(C(=O)O)c(F)cc1NS(=O)(=O)c1csc(-c2ccc([C@H]3CC[C@H](C(C)C)CC3)c(OC)c2F)n1 [Example 803] | < 100
COc1cc(C(=O)O)c(F)cc1NS(=O)(=O)c1csc(-c2ccc(C3=CCC(C)(C)CC3)cn2)n1 [Example 565] | 100 to 500
COc1cc(C(=O)O)c(F)cc1NS(=O)(=O)c1csc(-c2ccc(C3CCC(C)(C)CC3)cc2)n1 [Example 372] | < 100
COc1cc(C(=O)O)c(F)cc1NS(=O)(=O)c1csc(-c2ccc(OC3CCCCC3)cc2)n1 [Example 763] | 100 to 500
COc1cc(C(=O)O)c(F)cc1NS(=O)(=O)c1csc(-c2ccc(C3=CCC(C(F)(F)F)CC3)cc2C(F)(F)F)n1 (stereo not shown) [Example 601] | < 100
COc1cc(C(=O)O)c(F)cc1NS(=O)(=O)c1ccc2sc(-c3ccc(C4CCC(C)(C)CC4)cc3)nc2c1 [Example 664] | 100 to 500
COc1cc(C(=O)O)c(C2=CCCC2)cc1NS(=O)(=O)c1csc(-c2ccc(C3CCC(C)(C)CC3)cc2C(F)(F)F)n1 [Example 698] | 1000 to 100000
O=C(O)c1ccc(NS(=O)(=O)c2csc(N3CCC(F)(F)CC3)n2)cc1 [Example 58] | 1000 to 100000

Second part, the compound after the results:

IC50 [nM] | SMILES
1000 to 100000 | O=C(O)c1ccc2cc(NS(=O)(=O)c3cnc(-c4ccc(F)cc4)s3)ccc2c1 [Example 387, 6-((2-(4-fluorophenyl)thiazole)-5-sulfonamido)-2-naphthoic acid]
100 to 500 | COc1cc(C(=O)O)ccc1NS(=O)(=O)c1csc(C#Cc2ccccc2)n1 [Example 150]
1000 to 100000 | CS(=O)(=O)c1cc(C(=O)O)ccc1NS(=O)(=O)c1cnc(-c2ccc(F)cc2)s1 [Example 115]
1000 to 100000 | O=C(O)c1ccc2c(c1)N(S(=O)(=O)c1ccc(F)cc1)CC2 [Example 10]
100 to 500 | COc1cc(C(=O)O)c(F)cc1NS(=O)(=O)c1cnn(-c2ccc([C@H]3CC[C@H](C(F)(F)F)CC3)cc2)c1 [Example 686, 2-fluoro-5-methoxy-4-((1-(4-((1r,4r)-4-(trifluoromethyl)cyclohexyl)phenyl)-1H-pyrazole)-4-sulfonamido)benzoic acid]
1000 to 100000 | COc1cc(C(=O)O)ccc1NS(=O)(=O)c1csc(N2CCC(c3ccccn3)CC2)n1 [Example 262]
1000 to 100000 | O=S(=O)(Nc1ccc(O)cc1O)c1cnc(-c2ccc(F)cc2)s1 [Example 109]
1000 to 100000 | Cc1sc(-c2ccc(F)cc2)nc1S(=O)(=O)Nc1ccc(C(=O)O)cc1 [Example 55, 4-((2-(4-fluorophenyl)-5-methylthiazole)-4-sulfonamido)benzoic acid]
500 to 1000 | COc1cc(C(=O)O)ccc1NS(=O)(=O)c1csc(-c2ccc(OC)c3ccccc23)n1 [Example 154]
100 to 500 | COc1cc(C(=O)O)c(F)cc1NS(=O)(=O)c1csc(-c2ccc(-c3cn[nH]c3)cc2)n1 [Example 644]
< 100 | COc1cc(C(=O)O)ccc1NS(=O)(=O)c1csc(C#Cc2ccc(N(C)C)cc2)n1 [Example 210]
1000 to 100000 | O=C(O)c1ccc(NS(=O)(=O)c2cnc(-c3ccc(F)cc3)s2)c(C2CC2)c1 [Example 44]
500 to 1000 | O=C(O)c1ccc(NS(=O)(=O)c2cnc(-c3ccc(F)cc3)s2)cc1F [Example 21]
100 to 500 | COc1cc(C(=O)O)c(F)cc1NS(=O)(=O)c1csc(-c2ccc(-c3ccsc3)cc2)n1 [Example 634]
1000 to 100000 | COc1cc(S(N)(=O)=O)ccc1NS(=O)(=O)c1cnc(-c2ccc(F)cc2)s1 [Example 119]
1000 to 100000 | COc1cc(C(=O)O)ccc1NS(=O)(=O)c1csc(N2CCN(c3ccc(Br)cc3)CC2)n1 [Example 285]
1000 to 100000 | COc1cc(C(=O)O)ccc1NS(=O)(=O)c1csc(N2CCCC(c3ccc(F)cc3)C2)n1 (stereo not shown) [Example 292]
< 100 | COc1cc(C(=O)O)c(F)cc1NS(=O)(=O)c1cnc(-c2ccc(C3=CCC(C(C)(C)C)CC3)cc2)s1 (stereo not shown) [Example 717]
< 100 | COc1cc(C(=O)O)ccc1NS(=O)(=O)c1ccc(-c2ccc(F)cc2)s1 [Example 174]
1000 to 100000 | COc1cc(C(=O)O)ccc1NS(=O)(=O)c1csc(C#Cc2ccc(O)cc2)n1 [Example 183]

IC50 [nM] | SMILES
1000 to 100000 | COc1cc(C(=O)N(C)O)ccc1NS(=O)(=O)c1cnc(-c2ccc(F)cc2)s1 [Example 71]
100 to 500 | CC[C@H]1CC[C@H](c2ccc(-c3ccnc(S(=O)(=O)Nc4cc(F)c(C(=O)O)cc4OC)c3)cc2)CC1 [Example 640]
1000 to 100000 | O=C(O)c1ccc(NS(=O)(=O)c2cnc(-c3ccc(F)cc3)s2)cc1-c1ccccc1 [Example 47]
100 to 500 | COc1cc(C(=O)O)ccc1NS(=O)(=O)c1csc(N2CCCCC2c2ccccc2)n1 (stereo not shown) [Example 270]
100 to 500 | O=C(O)c1cc(NS(=O)(=O)c2cnc(-c3ccc(F)cc3)s2)co1 [Example 86]
100 to 500 | COc1cc(C(=O)O)ccc1NS(=O)(=O)c1csc(-c2cccc3c2CCCC3)n1 [Example 157]
1000 to 100000 | O=C(O)c1ccc2c(c1)CCCN2S(=O)(=O)c1ccc(F)cc1 [Example 7]
500 to 1000 | COc1cc(C(=O)O)ccc1NS(=O)(=O)c1ccc(C2=CCN(c3ccccc3)CC2)cc1F [Example 341]
500 to 1000 | COc1cc(C(=O)O)ccc1NS(=O)(=O)c1csc2ccccc12 [Example 136]
100 to 500 | COc1cc(C(=O)O)ccc1NS(=O)(=O)c1cnc(C#Cc2ccccc2)s1 [Example 169]
1000 to 100000 | COc1cc(C(=O)O)ccc1NS(=O)(=O)c1cnn(-c2ccc(F)cc2)c1C [Example 80]
1000 to 100000 | COc1cc(C(=O)O)ccc1NS(=O)(=O)c1csc(-c2ccc(C(=O)O)cc2OC)n1 [Example 322]
500 to 1000 | COc1cc(C(=O)O)ccc1NS(=O)(=O)c1ccc(-c2cccc(-c3ccc(OC(F)(F)F)cc3)c2)s1 [Example 254]
500 to 1000 | COc1cc(C(=O)O)ccc1S(=O)(=O)Nc1csc(-c2ccccc2)n1 [Example 103]
500 to 1000 | COc1cc(C(=O)O)ccc1NS(=O)(=O)N1Cc2ccc(-c3ccc(C4CCCCC4)cc3)cc2C1 [Example 364]
< 100 | COc1cc(C(=O)O)ccc1NS(=O)(=O)c1ccc(-c2cccc(C(F)(F)F)c2)s1 [Example 212]
< 100 | COc1ccc(-c2nc(S(=O)(=O)Nc3ccc(C(=O)O)cc3OC)co2)cc1 [Example 415]
100 to 500 | COc1cc(C(=O)O)ccc1NS(=O)(=O)c1csc(N2CCN(c3ccc(-c4ccccc4)cc3)CC2)n1 [Example 288]
< 100 | COc1cc(C(=O)O)ccc1NS(=O)(=O)c1cnc(-c2ccc(-c3ccc(C(F)(F)F)cc3)cc2)s1 [Example 718]
100 to 500 | COc1cc(C(=O)O)ccc1NS(=O)(=O)c1cnc(-c2ccc(C3CCC(c4ccccc4)CC3)cc2)s1 (stereo not shown) [Example 452, 3-methoxy-4-((2-(4-(4-phenylcyclohexyl)phenyl)thiazole)-5-sulfonamido)benzoic acid]
